Results: PubChem BioAssay (NCI)
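Results reflect a 48-hour exposure of cells in 96-well plates to compound at five concentrations. The concentration for 50% growth inhibition is given as GI50. TGI is the concentration that stops growth completely.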

Assays:
Assay in all cases: inhibition of tumour cell growth, NCI panel, 48 h
RXF 393 renal = system: RXF 393 renal
UO-31 renal = system: UO-31 renal
CAKI-1 renal = system: CAKI-1 renal
HOP-92 NSCLC = system: HOP-92 NSCLC
HS 578T breast = system: HS 578T breast
RPMI-8226 leukemia = system: RPMI-8226 leukemia
EKVX NSCLC = system: EKVX NSCLC
A549 NSCLC = system: A549 NSCLC
ACHN renal = system: ACHN renal
SNB-75 CNS = system: SNB-75 CNS

SMILES	TGI (RXF 393 renal) [µM]	TGI (UO-31 renal) [µM]	TGI (CAKI-1 renal) [µM]	TGI (HOP-92 NSCLC) [µM]	TGI (HS 578T breast) [µM]	TGI (RPMI-8226 leukemia) [µM]	TGI (EKVX NSCLC) [µM]	TGI (A549 NSCLC) [µM]	TGI (ACHN renal) [µM]	TGI (SNB-75 CNS) [µM]	GI50 (RXF 393 renal) [µM]	GI50 (UO-31 renal) [µM]	GI50 (CAKI-1 renal) [µM]	GI50 (HOP-92 NSCLC) [µM]	GI50 (HS 578T breast) [µM]	GI50 (RPMI-8226 leukemia) [µM]	GI50 (A549 NSCLC) [µM]	GI50 (ACHN renal) [µM]	GI50 (SNB-75 CNS) [µM]	GI50 (EKVX NSCLC) [µM]
CC1(C)CCC(C)(C)c2cc(C(=O)Nc3ccc(C(=O)O)cc3)ccc21	> 42	30.7	37.2	> 100	> 46.8	57.7	> 100	> 75.1	> 61.2	> 100	–	–	–	–	–	–	–	–	–	–
N#Cc1ccc(-c2nc(C#N)c(N)o2)cc1	> 10	> 10	> 10	> 10	> 10	> 10	> 10	> 10	> 10	> 10	–	–	–	–	–	–	–	–	–	–
CC1(C)N=C(N)N=C(N)N1c1ccc(CCc2ccccc2)c(Cl)c1	17.6	> 100	> 48.8	9.51	27.2	14	–	14	> 100	12.7	0.829	8.12	3.99	1.14	3.7	0.336	0.0452	1.97	0.517	–
CON(C)C(=O)C(C)NC(=O)OCc1ccccc1 (stereo not drawn)	> 100	> 100	–	> 100	> 100	> 100	> 100	> 100	> 100	> 100	–	–	–	–	–	–	–	–	–	–
C/C(=N\O)c1ccc(Nc2cc(-n3nnc4ccccc43)nc3ccccc23)cc1	–	26.6	13.7	46.5	20.4	12.8	> 28.9	> 41.3	21.8	99.2	–	6.79	4.26	14.4	6.29	3.19	8.42	5.82	22.8	6.97
S=C(N/N=C/c1cc(Cl)cc(Cl)c1)NC12CC3CC(CC(C3)C1)C2	> 37.2	> 100	92.8	12	7.41	> 100	–	> 100	8.05	5.46	4.19	4.86	3.6	2.5	2.16	> 100	3.51	2.29	2	–
Cc1cc(N(CCNc2ccnc3cc(Cl)ccc23)Cc2ccc3c(c2)OCO3)nc(N2CCN(C)CC2)n1	3.17	2.85	–	2.96	5.2	5.23	18.9	12.8	5.78	3.04	1.43	1.43	–	1.29	1.87	1.88	3.51	2.52	1.44	4.4
COc1cc(/C=C2\CN(C)CC3=C2Nc2nc(SC)[nH]c(=O)c2C3c2cc(OC)c(OC)c(OC)c2)cc(OC)c1OC (stereo not drawn)	3.45	3.44	4.71	10.9	> 100	–	66.4	13.7	3.55	22.6	1.81	1.57	2.15	3.4	8.88	–	3.26	1.93	7.36	8.44
Cn1cc(C2=C(c3cn(C)c4ccc(N)cc34)C(=O)NC2=O)c2ccccc21	> 25	> 25	> 25	–	> 25	> 25	–	> 25	> 25	> 21.2	8.13	3.6	4.85	–	5.3	> 16.5	12.5	13.9	1.63	–
CCN(c1ccc(CO)c(Cl)c1)C(C)c1ccc(F)cc1 (stereo not drawn)	26	29.1	21.7	–	40.2	39.2	–	27.9	27.7	26.8	11	15.3	8.46	–	16.9	11.8	13.1	14.2	13	–
COc1ccc(C2SC(N)=Nc3c2c(C)nn3C(=O)c2ccc(Cl)cc2)cc1OC (stereo not drawn)	> 10	–	> 10	> 10	> 10	> 10	> 10	> 10	> 10	> 10	–	–	–	–	–	–	–	–	–	–
Cc1ccc(C(=O)/C(=C/c2ccc([N+](=O)[O-])cc2)S(=O)Cc2ccccc2)cc1 (stereo not drawn)	3	2.55	–	3.22	8.87	2.35	3.13	5.66	2.92	2.73	1.47	1.17	–	1.41	2.58	0.404	2.26	1.56	1.27	1.6
